Marks after values point to notes of the source that are not given here.
Assay: logP by HPLC (EEC Directive 79/831 Annex V.A8)
Format: physicochemical
[1] = [b] LC-MS, acidic range, pH 2.7, 0.1% aqueous formic acid and acetonitrile
[2] = [c] LC-MS, neutral range, pH 7.8, 0.001 molar aqueous ammonium bicarbonate and acetonitrile

`Cc1ccc(C)c(NC(=O)N2CCC(F)(c3nc(C(=O)OCc4c(F)cccc4F)cs3)CC2)c1` [Example 171] showed a logP [1] of 3.69 and a logP [2] of 3.71.
For `Cc1ccc(C)c(NC(=O)N2CCC(c3nc(C(=O)Oc4c(F)cccc4Cl)cs3)CC2)c1` [Example 149], the logP [1] was 3.62^[b].
With `COc1ccc(C)cc1NC(=O)N1CCC(c2nc(C(=O)OCc3c(F)cccc3Cl)cs2)CC1` [Example 162] the logP [1] was 3.92^[b].
With `Cc1ccc(Cl)cc1NC(=S)N1CCC(c2nc(C(=O)OC3CCCCC3c3ccccc3)cs2)CC1` (centres unmarked) [Example 159] the logP [1] was 4.83^[b].
Work on `Cc1ccc(C(F)(F)F)cc1OC(=O)N1CCC(c2nc(C(=O)OC3CCCCC3)cs2)CC1` [Example 38, 2-Methyl-5-(trifluoromethyl)phenyl 4-{4-[(cyclohexyloxy)carbonyl]-1,3-thiazol-2-yl}piperidine-1-carboxylate] yielded a chromatographic logP (pH 2.7, given in the preparation examples, read-out: log P (pH 2.7)) of 5.28.
In the case of `CCCCC(=O)N1CCC(c2nc(C(=O)OC3CCCCC3)cs2)CC1` [Example 4], the logP [1] was 3.64^[b].
With `Cc1cc(C(F)(F)F)nn1CC(=O)N1CCN(c2nc(C(=O)SC3CCCCC3)cs2)CC1` [Example 34] the logP [2] was 4.43^[c].
In the case of `Cc1ccc(F)cc1NC(=S)N1CCC(c2nc(C(=O)OCc3ccccc3Br)cs2)CC1` [Example 117], the logP [1] was 3.98^[c]; 3.98^[b] and the logP [2] was 3.98^[c]; 3.98^[b].
In the case of `Cc1oc(-c2ccccc2)nc1CC(=O)N1CCC(c2nc(C(=O)OC3CCCCC3)cs2)CC1` [Example 22], the logP [1] was 4.15^[b].
For `COc1ccc(Cl)cc1NC(=O)N1CCC(c2nc(C(=O)OCc3ccccc3Br)cs2)CC1` [Example 105], the logP [1] was 4.35 and the logP [2] was 4.36.
`Cc1cc(C(F)(F)F)nn1CC(=O)N1CCN(c2nc(C(=O)OCc3c(F)cccc3F)cs2)CC1` [Example 51] gave a logP [1] of 3.28 and a logP [2] of 3.33.
With `Cc1ccc(C)c(NC(=O)N2CCC(c3nc(C(=O)OCc4ccccc4Cl)cs3)CC2)c1` [Example 135] the logP [1] was 3.73^[b].
For `Cc1cc(C(F)(F)F)nn1CC(=O)N1CCN(c2nc(C(=O)Oc3ccccc3Cl)cs2)CC1` [Example 39], the logP [1] was 3.46 and the logP [2] was 3.41.
In the case of `Cc1cc(C)cc(CC(=O)N2CCC(c3nc(C(=O)OC4CCCCC4)cs3)CC2)c1` [Example 65], the logP [1] was 4.32 and the logP [2] was 4.34.

— US8501781B2 (priority 2009, dated 2013)
